Drawing on patent US5279811A, “Ester-substituted diaminedithiols and radiolabeled complexes thereof” (The Du Pont Merck Pharmaceutical Company, priority 1988, dated 1994), this text covers solubility for one compound.

This series in a line: solubility. The series is classed as physicochemical. Conditions: all solvents except aqueous base.

For `O=C(O)C(CS)NCCNC(CS)C(=O)O` [N,N'-1,2-ethylenediylbis-L-cysteine], the solubility entry is recorded as “insoluble in all solvents except aqueous base”.
